From patent US20220354844A1, “METHODS OF TREATING METABOLIC DISEASES WITH FUSED BICYCLIC PYRAZOLES” (Belite Bio, Inc, priority 2017, published 2022)
Where “and” joins values, the source holds several entries; their conditions need not be identical. Equal values may be shown once. Read-outs that look alike come from different tables or passages of the source.

Legend:
[1] = tested on: Subjects with NAFLD or NASH; assay: Treatment of NAFLD and NASH in humans; format: in vivo, human; conditions: 50 or 100 mg/day for 6 months
Procedure: Subjects with NAFLD or NASH are treated with doses of either 50 or 100 mg/day of compound 1 or 2 for 6 months. Subjects are permitted their usual other medications (e.g. antidiabetic medications such as metformin or […]) but not glitazones, PPAR agonists, OCA, or similar medications. The subjects are assessed before the study, and at intervals during the study, such as every 4 weeks during the study and 4 weeks after the last dose of compound 1 or 2, for safety and pharmacodynamic evaluations.
MRIs of the subjects' livers are taken every 4 weeks during the study and 4 weeks after completion of compound 1 or 2 dosing, to determine hepatic fat; and liver biopsies are taken before the study (to establish the diagnosis) and 4 weeks after completion of compound 1 or 2 dosing. At each visit, after a 12-hour fast, blood is drawn and urine collected; and a standard metabolic panel, complete blood count, and standard urinalysis are performed. Blood is analyzed for total cholesterol, HDL-C, LDL-C, VLDL-C, TGs, apoB, and liver transaminases. The subjects also maintain health diaries, which are reviewed at each visit.

[2] = Compound 2 single dose rat PK study; format: in vivo, male Sprague Dawley rats; conditions: for Vd: read-out: Vss
Procedure: A pharmacokinetic study of Compound 2 following a single intravenous or oral dose administration to male Sprague Dawley rats was conducted, the results of which are found in Table 5 and FIGS. 21-24.

[3] = male, Sprague Dawley, plasma, iv, 2 mg/kg, single iv dose 2 mg/kg, Mean of the 3 rats
[4] = male, Sprague Dawley, plasma, iv, 2 mg/kg, single iv dose 2 mg/kg, individual rats
[5] = male, Sprague Dawley, plasma, po, 5 mg/kg, single po dose 5 mg/kg, Mean of the 3 rats
[6] = male, Sprague Dawley, plasma, po, 5 mg/kg, single po dose 5 mg/kg, individual rats
[7] = single iv dose 2 mg/kg, individual rats, 2 mg/kg
[8] = single po dose 5 mg/kg, individual rats, 5 mg/kg

SMILES: CC(=O)N1Cc2[nH]nc(C(=O)N3CCC(c4ccc(F)c(F)c4C(F)(F)F)CC3)c2C1 [Compound 2, 1-(3-(4-(3,4-difluoro-2-(trifluoromethyl)phenyl)piperidine-1-carbonyl)-4,6-dihydropyrrolo[3,4-c]pyrazol-5(1H)-yl)ethan-1-one]
- improvement in their disease, as manifested by MRI and liver biopsy [1]: dose-related improvement
- AUC(0-inf) [2, 3]: 5750 ng·h/mL
- AUC(0-t) [2, 3]: 5720 ng·h/mL
- MRT inf [2, 3]: 2.3 h
- MRT last [2, 3]: 2.2 h
- clearance [2, 3]: 3.17 mL/min/kg
- half-life [2, 3]: 6.6 h
- Tmax ([2]; male, Sprague Dawley, plasma, iv, 2 mg/kg, single iv dose 2 mg/kg, Mean of the 3 rats, first plasma collection time or observed time of highest plasma concentration): 0.22 h
- Cmax ([2]; male, Sprague Dawley, plasma, iv, 2 mg/kg, single iv dose 2 mg/kg, Mean of the 3 rats, read-out: Cmax): 2840 ng/mL
- Vd [2, 3]: 0.436 L/kg
- MRT inf [2, 4]: 2.1 h
- MRT last [2, 4]: 2 h
- half-life [2, 4]: 7.1 h
- Cmax ([2]; male, Sprague Dawley, plasma, iv, 2 mg/kg, single iv dose 2 mg/kg, individual rats, read-out: Cmax): 2920 ng/mL
- Vd [2, 4]: 0.421 L/kg
- AUC(0-inf) [2, 5]: 6410 ng·h/mL
- AUC(0-t) [2, 5]: 6370 ng·h/mL
- MRT inf [2, 5]: 4.8 h
- MRT last [2, 5]: 4.5 h
- Tmax [2, 5]: 0.5 h
- half-life [2, 5]: 8 h
- Cmax ([2]; male, Sprague Dawley, plasma, po, 5 mg/kg, single po dose 5 mg/kg, Mean of the 3 rats, read-out: Cmax): 1600 ng/mL
- AUC(0-inf) [2, 6]: 5340 ng·h/mL
- AUC(0-t) [2, 6]: 5280 ng·h/mL
- MRT inf [2, 6]: 5 h
- MRT last [2, 6]: 4.5 h
- Tmax [2, 6]: 0.5 h
- half-life [2, 6]: 10.9 h
- Cmax ([2]; male, Sprague Dawley, plasma, po, 5 mg/kg, single po dose 5 mg/kg, individual rats, read-out: Cmax): 1530 ng/mL
- AUCLAST [2, 7]: 5039 ng·h/mL and 8134 ng·h/mL and 3994 ng·h/mL
- Cl [2, 7]: 2.05 mL/min/kg
- Cmax [2, 7]: 3275 ng/mL and 2320 ng/mL
- MRTinf [2, 7]: 2.6 h and 2.3 h
- MRTlast [2, 7]: 2.5 h and 2.1 h
- Vss [2, 7]: 0.315 L/kg and 0.572 L/kg
- t1/2 [2, 7]: 7.0 h and 5.7 h
- F ([2]; single po dose 5 mg/kg, Mean of the 3 rats): 44.6%
- AUCLAST [2, 8]: 8392 ng·h/mL and 5435 ng·h/mL
- AUCinf [2, 8]: 8434 hr · ng/m1 and 5452 hr · ng/m1
- Cmax [2, 8]: 2036 ng/mL and 1240 ng/mL
- F [2, 8]: 37.2% and 58.7% and 38.0%
- MRTinf [2, 8]: 5.4 h and 4.1 h
- MRTlast [2, 8]: 5.1 h and 4.0 h
- t1/2 [2, 8]: 7.7 h and 5.5 h
